Results on seven cell lines are retold here after the supplement of paper PMC10307832.

Assay in all cases: relative viability (nuclei count vs DMSO), 5 days (fraction); higher = more cells survive
Compound in experiment [1]: NCC(=O)Nc1ccc(-n2nc(C(F)(F)F)cc2-c2ccc3c(ccc4ccccc43)c2)cc1
In short, it runs like this: (§1)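 For viability, nuclei in each treated well were divided by nuclei in vehicle wells and the median across plates was taken. Lung cancer cell lines in 1536-well plates were pinned with five library-drug doses (not always all listed) spaced by √10, cultured 5 days without medium change, and imaged at 4× after Hoechst staining, with plates passing only at control CV below 25% and at least one doubling.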

Compound in experiment [2]: C1CSC2=C(C(=O)N1)SC3=C2C=C(C=C3)O [kb NB 142-70]
The method in brief: as §1

Compound in experiment [3]: C1CSC2=C(C(=O)N1)SC3=C2C=C(C=C3)O [kb NB 142-70] + Cc1nc(NC(=O)N2CCC[C@H]2C(N)=O)sc1-c1ccnc(C(C)(C)C(F)(F)F)c1 [Alpelisib] (partner 2 µM)
In short, it runs like this:
(§2)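 Dosing by pin tool came one day after lung cancer cell lines were seeded in 1536-well plates, using either one drug or a fixed anchor-drug dose plus five library-drug doses (not always all listed) in √10 steps. After 5 days, nuclei were counted on 4× images. Relative viability is treated-well nuclei count divided by vehicle-well nuclei count, and values are medians of duplicate plates.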

Compound in experiment [4]: NCC(=O)Nc1ccc(-n2nc(C(F)(F)F)cc2-c2ccc3c(ccc4ccccc43)c2)cc1 + Nc1nc2[nH]cc(CCc3ccc(C(=O)N[C@@H](CCC(=O)O)C(=O)O)cc3)c2c(=O)[nH]1 [Pemetrexed] (partner 0.2 µM)
The method in brief: as §2

As for PC-3 [JPC-3], the relative viability in experiment [1] (0.02 µM) was 0.996; in experiment [1] (0.06325 µM), 1.08; in experiment [1] (0.2 µM) it was 1.01; in experiment [1] (0.6325 µM), 1.02; in experiment [1] (2 µM), 1.14; in experiment [2] (0.1 µM), 1. Besides, the relative viability in experiment [2] (1 µM) is 1.07; in experiment [2] (3.162 µM) it was 1.05; in experiment [3] (first compound 0.1 µM), 1.06; in experiment [3] (first compound 1 µM) it was 1.04; in experiment [3] (first compound 3.162 µM), 0.968; in experiment [4] (first compound 0.02 µM), 1.2. For the same cell line, the relative viability was found to be 1.24 in experiment [4] (first compound 0.06325 µM), 1.08 in experiment [4] (first compound 0.2 µM), 1.2 in experiment [4] (first compound 0.6325 µM) and 1.18 in experiment [4] (first compound 2 µM).
In the case of PC-14, the relative viability stood at 1.05 in experiment [1] (0.02 µM); 1.06 in experiment [1] (0.06325 µM); 0.954 in experiment [1] (0.2 µM); 0.964 in experiment [1] (0.6325 µM); 1.02 in experiment [1] (2 µM); 0.958 in experiment [2] (0.1 µM). In addition, the relative viability was 0.973 in experiment [2] (1 µM); 0.954 in experiment [2] (3.162 µM); 0.902 in experiment [3] (first compound 0.1 µM); 0.969 in experiment [3] (first compound 1 µM); 0.99 in experiment [3] (first compound 3.162 µM); 0.131 in experiment [4] (first compound 0.02 µM). Moreover, the results for the relative viability in experiment [4] (first compound 0.06325 µM), in experiment [4] (first compound 0.6325 µM) and in experiment [4] (first compound 2 µM) were 0.136, 0.131 and 0.113, respectively.
RERF-LC-KJ: the relative viability in experiment [1] (0.02 µM) worked out at 1.05; in experiment [1] (0.06325 µM) it was 1.01; in experiment [1] (0.2 µM) it was 0.993; in experiment [1] (0.6325 µM), 1.01; in experiment [1] (2 µM), 1; in experiment [2] (0.1 µM), 0.988. The relative viability is 1.04 in experiment [2] (1 µM); 0.921 in experiment [2] (3.162 µM); 0.778 in experiment [3] (first compound 0.1 µM); 0.827 in experiment [3] (first compound 1 µM); 0.706 in experiment [3] (first compound 3.162 µM); 0.493 in experiment [4] (first compound 0.02 µM). The relative viability was 0.402 in experiment [4] (first compound 0.06325 µM), 0.462 in experiment [4] (first compound 0.2 µM), 0.447 in experiment [4] (first compound 0.6325 µM) and 0.466 in experiment [4] (first compound 2 µM).
Regarding SK-LU-1, the relative viability worked out at 0.949 in experiment [1] (0.02 µM); 1.1 in experiment [1] (0.06325 µM); 1.2 in experiment [1] (0.2 µM); 1.01 in experiment [1] (0.6325 µM); 1.07 in experiment [1] (2 µM); 0.994 in experiment [2] (0.1 µM). The relative viability in experiment [2] (1 µM) was found to be 0.982; in experiment [2] (3.162 µM), 0.664; in experiment [3] (first compound 0.1 µM), 0.961; in experiment [3] (first compound 1 µM), 0.873; in experiment [3] (first compound 3.162 µM), 0.307; in experiment [4] (first compound 0.02 µM), 0.992. In addition, the relative viability in experiment [4] (first compound 0.06325 µM) is 0.956; in experiment [4] (first compound 0.2 µM) it was 1.11; in experiment [4] (first compound 0.6325 µM), 0.902; in experiment [4] (first compound 2 µM) it was 0.989.
On to SK-MES-1, for which the relative viability is 1.04 in experiment [1] (0.02 µM); 1.01 in experiment [1] (0.06325 µM); 1.06 in experiment [1] (0.2 µM); 1.01 in experiment [1] (0.6325 µM); 1.03 in experiment [1] (2 µM); 1.01 in experiment [2] (0.1 µM). The relative viability is 1.13 in experiment [2] (1 µM); 0.734 in experiment [2] (3.162 µM); 0.932 in experiment [3] (first compound 0.1 µM); 0.922 in experiment [3] (first compound 1 µM); 0.833 in experiment [3] (first compound 3.162 µM); 0.911 in experiment [4] (first compound 0.02 µM). Also, the relative viability is 0.919 in experiment [4] (first compound 0.06325 µM), 1.05 in experiment [4] (first compound 0.2 µM), 0.85 in experiment [4] (first compound 0.6325 µM) and 1.08 in experiment [4] (first compound 2 µM).
Regarding SW 1573, the relative viability is 0.94 in experiment [1] (0.02 µM); 1.01 in experiment [1] (0.06325 µM); 1.03 in experiment [1] (0.2 µM); 0.971 in experiment [1] (0.6325 µM); 0.877 in experiment [1] (2 µM); 1.02 in experiment [2] (0.1 µM). Moreover, the relative viability in experiment [2] (1 µM) was determined as 0.84; in experiment [2] (3.162 µM) it was 0.535; in experiment [3] (first compound 0.1 µM) it was 0.86; in experiment [3] (first compound 1 µM) it was 0.549; in experiment [3] (first compound 3.162 µM) it was 0.529; in experiment [4] (first compound 0.02 µM), 0.847. The relative viability in experiment [4] (first compound 0.06325 µM) was found to be 0.805; in experiment [4] (first compound 0.2 µM) it was 0.81; in experiment [4] (first compound 0.6325 µM) it was 0.796; in experiment [4] (first compound 2 µM) it was 0.75.
With UMC-11, the relative viability was 0.93 in experiment [1] (0.02 µM); 1 in experiment [1] (0.06325 µM); 1.05 in experiment [1] (0.2 µM); 1.01 in experiment [1] (0.6325 µM); 0.931 in experiment [1] (2 µM); 1.03 in experiment [2] (0.1 µM). The relative viability was found to be 0.973 in experiment [2] (1 µM); 0.572 in experiment [2] (3.162 µM); 0.96 in experiment [3] (first compound 0.1 µM); 0.959 in experiment [3] (first compound 1 µM); 0.418 in experiment [3] (first compound 3.162 µM); 0.835 in experiment [4] (first compound 0.02 µM). Further, the relative viability in experiment [4] (first compound 0.06325 µM) amounted to 0.699; in experiment [4] (first compound 0.2 µM), 0.905; in experiment [4] (first compound 0.6325 µM), 0.853; in experiment [4] (first compound 2 µM), 0.759.
